Measurements taken from US20050112573A1, “Method of detecting toxic substance” (priority 2001, published 2005).

Tested on: yeast genes (level of expressed mRNA)
Test: DNA chip analysis of expressed mRNA of yeast genes after 2 h culture with a toxic chemical substance
Type: cell-based, Saccharomyces cerevisiae S288C
Details: for The level of expressed mRNA in the presence of chemical substance/ (ratio to absence of chemical substance): stress protein genes, DNA chip; for The level of expressed mRNA in the presence of chemical substance/ in its absence, gene YPR184W: yeast gene YPR184W
Procedure: Yeast (Saccharomyces cerevtisiae S288C (α SUC2mal mel gap2 CUP1)) were cultured at 25° C. on YPD medium (yeast extract 1%, polypepton 2%, glucose 2%). One of toxic chemical substances was added to the cell at logarithmic growth phase, and the cell was further cultured for two hours. Cell was cultured without any chemical substance in the same condition, and was used as control. Concentrations of the chemical substances were defined to inhibit the growth of the yeast but not lead to death.
After the completion of cultivation, the culture was centrifuged to collect the cells. To the cells, sodium acetate buffer (50 mM sodium acetate, 10 mM EDTA, 1% SDS) was added, and the mixture was shaken at 65° C. for five minutes, followed by returning to room temperature, and obtaining the supernatant, which procedure was repeated two times. To the supernatant, ½ amount of a solution of phenol/chloroform was added, and the mixture was centrifuged to give a supernatant, which was added with an equal amount of chloroform, and the mixture was centrifuged to give a supernatant. To the supernatant, an equal amount of isopropanol containing 0.3 M sodium acetate was added, and the mixture was allowed to stand at room temperature for 30 minutes, after which the mixture was centrifuged to give a sediment of the whole RNAs. Seventy % ethanol was added to the sediment, and the mixture was again centrifuged to give a sediment, which was then dried and dissolved in water. mRNA was isolated from the whole RNAs as followings. In view of the fact that a poly A chain is attached to the 3′ terminus of mRNA, a polynucleotide having a poly T structure which was immobilized on the surface of latex beads was used to trap the mRNA, and then the mRNA was washed and eluted with spine column (Oligotex-dT30<Super>mRNA Purification Kit, Takara). Reverse transcription of the mRNA was conducted with a reverse transcriptase (Super Script II Reverse Transcriptase; catalogue No. 18064-014, GibcoBRL) using fluorescence-labeled nucleotides to give cDNAs that were introduced with Cy3-dUTP or Cy5-dUTP during the reverse transcription.
The labeled cDNAs were dissolved in TE buffer (10 mM Tris-HCl/1 mM EDTA, pH8.0), and the solution was dropped on the DNA chip containing the whole genes of yeast (DNA Chip Research Inc. Japan) so that the cDNAs were hybridized on the DNA chip at 65° C. for over 12 hours. The fluoresces intensity of the DNA chip was read with a scanner, and the ratio relative to the fluorescence intensity resulting from the absence of chemical substance was estimated as the following, which is shown in Tables 1 to 9: [formula]
In the Tables, “Intensity” indicated in the rightmost column is a value of the level of expressed mRNA of each gene in control cells as divided by the average level of the expressions of the whole genes.

CCCCC[C@H](O)CC(=O)CCc1ccc(O)c(OC)c1 [(13), gingerol]
The level of expressed mRNA in the presence of chemical substance/The level of expressed mRNA in the absence of chemical substance (yeast gene YNL006W): 2.3
The level of expressed mRNA in the presence of chemical substance/The level of expressed mRNA in the absence of chemical substance (yeast gene YNL007C): 2.1
The level of expressed mRNA in the presence of chemical substance/ (in its absence), gene YNL025C (yeast gene YNL025C, ratio of DNA chip fluorescence intensity to that without chemical substance): 1.3
The level of expressed mRNA in the presence of chemical substance/ (ratio to absence of chemical substance) (yeast gene YNL064C): 1.1
The level of expressed mRNA in the presence of chemical substance/ (ratio to absence), gene YNL073W (yeast gene YNL073W, mitochondria-located protein genes, 2 h culture with chemical): 1.2
The level of expressed mRNA in the presence of chemical substance/The level of expressed mRNA in the absence of chemical substance (yeast gene YNL093W): 2.2
The level of expressed mRNA in the presence of chemical substance/ (in its absence), gene YNL192W (yeast gene YNL192W, ratio of DNA chip fluorescence intensity to that without chemical substance): 2.7
The level of expressed mRNA in the presence of chemical substance/The level of expressed mRNA in the absence of chemical substance (yeast gene YNL333W): 2.2
The level of expressed mRNA in the presence of chemical substance/The level of expressed mRNA in the absence of chemical substance (yeast gene YNR010W): 2.8
The level of expressed mRNA in the presence of chemical substance/The level of expressed mRNA in the absence of chemical substance (yeast gene YNR069C): 3.4
The level of expressed mRNA in the presence of chemical substance/ (in its absence), gene YNR072W (yeast gene YNR072W, ratio of DNA chip fluorescence intensity to that without chemical substance): 1.5
The level of expressed mRNA in the presence of chemical substance/ (ratio to absence of chemical substance) (yeast gene YNR076W): 0.9
The level of expressed mRNA in the presence of chemical substance/The level of expressed mRNA in the absence of chemical substance (yeast gene YOL013C): 1.8
The level of expressed mRNA in the presence of chemical substance/ (ratio to absence), gene YOL096C (yeast gene YOL096C, mitochondria-located protein genes, 2 h culture with chemical): 1.4
The level of expressed mRNA in the presence of chemical substance/ (in its absence), gene YOL096C (yeast gene YOL096C, ratio of DNA chip fluorescence intensity to that without chemical substance): 1.4
The level of expressed mRNA in the presence of chemical substance/ (in its absence), gene YOL108C (yeast gene YOL108C, ratio of DNA chip fluorescence intensity to that without chemical substance): 1.3
The level of expressed mRNA in the presence of chemical substance/ (in its absence), gene YOL116W (yeast gene YOL116W, ratio of DNA chip fluorescence intensity to that without chemical substance): 0.8
The level of expressed mRNA in the presence of chemical substance/ (ratio to absence of chemical substance) (yeast gene YOL161C): 1.2
The level of expressed mRNA in the presence of chemical substance/The level of expressed mRNA in the absence of chemical substance (yeast gene YOL164W): 3.4
The level of expressed mRNA in the presence of chemical substance/ (ratio to absence of chemical substance) (yeast gene YOR008C): 0.9
The level of expressed mRNA in the presence of chemical substance/ (ratio to absence of chemical substance) (yeast gene YOR009W): 0.4
The level of expressed mRNA in the presence of chemical substance/ (ratio to absence of chemical substance) (yeast gene YOR010C): 0.5
The level of expressed mRNA in the presence of chemical substance/The level of expressed mRNA in the absence of chemical substance (yeast gene YOR036W): 2.1
The level of expressed mRNA in the presence of chemical substance/ (in its absence), gene YOR103C (yeast gene YOR103C, ratio of DNA chip fluorescence intensity to that without chemical substance): 0.8
The level of expressed mRNA in the presence of chemical substance/The level of expressed mRNA in the absence of chemical substance (yeast gene YOR117W): 2.3
The level of expressed mRNA in the presence of chemical substance/The level of expressed mRNA in the absence of chemical substance (yeast gene YOR124C): 2.1
The level of expressed mRNA in the presence of chemical substance/The level of expressed mRNA in the absence of chemical substance (yeast gene YOR132W): 2.5
The level of expressed mRNA in the presence of chemical substance/The level of expressed mRNA in the absence of chemical substance (yeast gene YOR157C): 2.4
The level of expressed mRNA in the presence of chemical substance/ (in its absence), gene YOR180C (yeast gene YOR180C, ratio of DNA chip fluorescence intensity to that without chemical substance): 0.9
The level of expressed mRNA in the presence of chemical substance/The level of expressed mRNA in the absence of chemical substance (yeast gene YOR181W): 1.2
The level of expressed mRNA in the presence of chemical substance/The level of expressed mRNA in the absence of chemical substance (yeast gene YOR185C): 2.2
The level of expressed mRNA in the presence of chemical substance/The level of expressed mRNA in the absence of chemical substance (yeast gene YOR198C): 1.8
The level of expressed mRNA in the presence of chemical substance/ (in its absence), gene YOR251C (yeast gene YOR251C, ratio of DNA chip fluorescence intensity to that without chemical substance): 1.0
The level of expressed mRNA in the presence of chemical substance/The level of expressed mRNA in the absence of chemical substance (yeast gene YOR259C): 1.8
The level of expressed mRNA in the presence of chemical substance/The level of expressed mRNA in the absence of chemical substance (yeast gene YOR261C): 2.5
The level of expressed mRNA in the presence of chemical substance/The level of expressed mRNA in the absence of chemical substance (yeast gene YOR288C): 2.4
The level of expressed mRNA in the presence of chemical substance/ (ratio to absence), gene YOR316C (yeast gene YOR316C, mitochondria-located protein genes, 2 h culture with chemical): 1.6
The level of expressed mRNA in the presence of chemical substance/ (in its absence), gene YOR348C (yeast gene YOR348C, ratio of DNA chip fluorescence intensity to that without chemical substance): 1.1
The level of expressed mRNA in the presence of chemical substance/The level of expressed mRNA in the absence of chemical substance (yeast gene YOR355W): 1.1
The level of expressed mRNA in the presence of chemical substance/ (in its absence), gene YOR363C (yeast gene YOR363C, ratio of DNA chip fluorescence intensity to that without chemical substance): 1.3
The level of expressed mRNA in the presence of chemical substance/The level of expressed mRNA in the absence of chemical substance (yeast gene YOR383C): 1.2
The level of expressed mRNA in the presence of chemical substance/ (ratio to absence), gene YPL040C (yeast gene YPL040C, mitochondria-located protein genes, 2 h culture with chemical): 1.0
The level of expressed mRNA in the presence of chemical substance/ (ratio to absence of chemical substance) (yeast gene YPL059W): 0.7
The level of expressed mRNA in the presence of chemical substance/The level of expressed mRNA in the absence of chemical substance (yeast gene YPL089C): 1.3
The level of expressed mRNA in the presence of chemical substance/The level of expressed mRNA in the absence of chemical substance (yeast gene YPL109C): 1.8
The level of expressed mRNA in the presence of chemical substance/ (ratio to absence), gene YPL134C (yeast gene YPL134C, mitochondria-located protein genes, 2 h culture with chemical): 1.0
The level of expressed mRNA in the presence of chemical substance/ (ratio to absence of chemical substance) (yeast gene YPL140C): 0.9
The level of expressed mRNA in the presence of chemical substance/ (in its absence), gene YPL148C (yeast gene YPL148C, ratio of DNA chip fluorescence intensity to that without chemical substance): 0.6
The level of expressed mRNA in the presence of chemical substance/The level of expressed mRNA in the absence of chemical substance (yeast gene YPL149W): 2.3
The level of expressed mRNA in the presence of chemical substance/The level of expressed mRNA in the absence of chemical substance (yeast gene YPL154C): 3.1
The level of expressed mRNA in the presence of chemical substance/ (ratio to absence of chemical substance) (yeast gene YPL194W): 1.4
The level of expressed mRNA in the presence of chemical substance/ (ratio to absence of chemical substance) (yeast gene YPR005C): 0.7
The level of expressed mRNA in the presence of chemical substance/The level of expressed mRNA in the absence of chemical substance (yeast gene YPR103W): 2.8
The level of expressed mRNA in the presence of chemical substance/The level of expressed mRNA in the absence of chemical substance (yeast gene YPR108W): 2.6
The level of expressed mRNA in the presence of chemical substance/ (in its absence), gene YPR165W (yeast gene YPR165W, ratio of DNA chip fluorescence intensity to that without chemical substance): 1.0
The level of expressed mRNA in the presence of chemical substance/ in its absence, gene YPR184W (energy system protein genes, 2 h culture with the chemical, ratio to control without chemical): 2.5
The level of expressed mRNA in the presence of chemical substance/ in its absence, gene YPR184W (ratio of DNA chip fluorescence intensity to that without chemical substance): 2.5
